# Like-named read-outs stand apart in the source and are kept apart here.
# Columns and labels:
# HepG2-A16-CD81EGFP cells = conditions: for IC50: read-out: Tox_IC50, HepG2 cytotoxicity
# [1] = system: Plasmodium berghei (Pb-Luc) exoerythrocytic-stage parasites; conditions: for IC50: read-out: PbLuc_IC50
# [2] = sheet 2nd round, maximal inhibition in dose response
# [3] = first series, fraction of control
# [4] = second series, fraction of control
# [5] = first series of columns, fraction of control
# [6] = second series of columns (replicate), fraction of control
# [7] = 2nd round, maximal inhibition in dose series
structure (smiles),measurement,setting,value
COc1cccc(CN2[C@H](CO)[C@@H](c3ccccc3)C23CN(Cc2ccccc2OC)C3)c1 [BRD-K58149752-001-01-9],IC50,HepG2-A16-CD81EGFP cells; sheet 2nd round,> 10 µM
same,Tox_max_inhibition (%),HepG2-A16-CD81EGFP cells; [2],12%
same,normalized signal at concentration 10,"[1]; first series of dose-response columns, fraction of control",0.43
same,normalized signal at concentration 0.000508053,[1]; [3],0.95
same,normalized signal at concentration 0.00152416,[1]; [3],0.91
same,normalized signal at concentration 0.00457247,[1]; [3],0.80
same,normalized signal at concentration 0.0137174,[1]; [3],0.89
same,normalized signal at concentration 0.0411523,[1]; [3],0.73
same,normalized signal at concentration 0.123457,[1]; [3],1.00
same,normalized signal at concentration 0.37037,[1]; [3],0.78
same,normalized signal at concentration 1.11111,[1]; [3],1.22
same,normalized signal at concentration 3.33333,[1]; [3],1.08
same,IC50,"[1]; sheet 2nd round, Broad compounds, dose response",> 10 µM
same,normalized signal at concentration 10,"[1]; second series of dose-response columns, fraction of control",0.60
same,normalized signal at concentration 0.000508053,[1]; [4],0.82
same,normalized signal at concentration 0.00152416,[1]; [4],0.84
same,normalized signal at concentration 0.00457247,[1]; [4],0.88
same,normalized signal at concentration 0.0137174,[1]; [4],0.90
same,normalized signal at concentration 0.0411523,[1]; [4],1.01
same,normalized signal at concentration 0.123457,[1]; [4],0.92
same,normalized signal at concentration 0.37037,[1]; [4],0.85
same,normalized signal at concentration 1.11111,[1]; [4],0.92
same,normalized signal at concentration 3.33333,[1]; [4],0.98
same,PbLuc_max_inhibition (%),[1]; [2],57%
O=C(Nc1ccc2c(c1)[C@@H]1C[C@@H](CC(=O)N3CCc4ccccc4C3)O[C@@H](CO)[C@@H]1O2)c1ccc2c(c1)OCO2 [BRD-K15778794-001-01-7],IC50,HepG2-A16-CD81EGFP cells; sheet 2nd round,> 10 µM
same,Tox_max_inhibition (%),HepG2-A16-CD81EGFP cells; [2],18%
same,normalized signal at concentration 0.000508053,[1]; [5],1.025
same,normalized signal at concentration 0.00152416,[1]; [5],1.17
same,normalized signal at concentration 0.00457247,[1]; [5],0.8971
same,normalized signal at concentration 0.0137174,[1]; [5],1.186
same,normalized signal at concentration 0.0411523,[1]; [5],1.0917
same,normalized signal at concentration 0.123457,[1]; [5],0.8992
same,normalized signal at concentration 0.37037,[1]; [5],1.075
same,normalized signal at concentration 1.11111,[1]; [5],1.105
same,normalized signal at concentration 3.33333,[1]; [5],0.9056
same,normalized signal at concentration 10,[1]; [5],0.4372
same,IC50,"[1]; sheet 2nd round, Pb-Luc exoerythrocytic stage, 10-point dose response, top concentration 10",> 10 µM
same,normalized signal at concentration 0.000508053,[1]; [6],0.9828
same,normalized signal at concentration 0.00152416,[1]; [6],0.8672
same,normalized signal at concentration 0.00457247,[1]; [6],0.9127
same,normalized signal at concentration 0.0137174,[1]; [6],0.911
same,normalized signal at concentration 0.0411523,[1]; [6],0.8229
same,normalized signal at concentration 0.123457,[1]; [6],0.8258
same,normalized signal at concentration 0.37037,[1]; [6],0.9225
same,normalized signal at concentration 1.11111,[1]; [6],1.043
same,normalized signal at concentration 3.33333,[1]; [6],0.8183
same,normalized signal at concentration 10,[1]; [6],0.6797
same,PbLuc_max_inhibition (%),[1]; [2],56%
COc1ccc(NC(=O)N(C)C[C@H]2Oc3c(NC(=O)CCCCCC(=O)Nc4ccccc4N)cccc3C(=O)N([C@H](C)CO)C[C@H]2C)cc1 [BRD-K75018854-001-01-2],Tox_max_inhibition (%),HepG2-A16-CD81EGFP cells; [7],8%
same,IC50,"HepG2-A16-CD81EGFP cells; 2nd round, unit inferred",> 10 µM
same,PbLuc_max_inhibition (%),[1]; [7],27%
same,normalized signal at 0.000508053 (first series),"[1]; concentration 0.000508053, first replicate series, fraction of control",1.05
same,normalized signal at 0.000508053 (second series),"[1]; concentration 0.000508053, second replicate series, fraction of control",0.8619
same,normalized signal at 0.00152416 (first series),"[1]; concentration 0.00152416, first replicate series, fraction of control",0.9022
same,normalized signal at 0.00152416 (second series),"[1]; concentration 0.00152416, second replicate series, fraction of control",0.7297
same,normalized signal at 0.00457247 (first series),"[1]; concentration 0.00457247, first replicate series, fraction of control",1.1676
same,normalized signal at 0.00457247 (second series),"[1]; concentration 0.00457247, second replicate series, fraction of control",0.8627
same,normalized signal at 0.0137174 (first series),"[1]; concentration 0.0137174, first replicate series, fraction of control",0.9808
same,normalized signal at 0.0137174 (second series),"[1]; concentration 0.0137174, second replicate series, fraction of control",0.929
same,normalized signal at 0.0411523 (first series),"[1]; concentration 0.0411523, first replicate series, fraction of control",1.1704
same,normalized signal at 0.0411523 (second series),"[1]; concentration 0.0411523, second replicate series, fraction of control",0.8231
same,normalized signal at 0.123457 (first series),"[1]; concentration 0.123457, first replicate series, fraction of control",1.053
same,normalized signal at 0.123457 (second series),"[1]; concentration 0.123457, second replicate series, fraction of control",1.0322
same,normalized signal at 0.37037 (first series),"[1]; concentration 0.37037, first replicate series, fraction of control",0.9438
same,normalized signal at 0.37037 (second series),"[1]; concentration 0.37037, second replicate series, fraction of control",0.8176
same,normalized signal at 1.11111 (first series),"[1]; concentration 1.11111, first replicate series, fraction of control",0.9278
same,normalized signal at 1.11111 (second series),"[1]; concentration 1.11111, second replicate series, fraction of control",0.8826
same,normalized signal at 3.33333 (first series),"[1]; concentration 3.33333, first replicate series, fraction of control",1.001
same,normalized signal at 3.33333 (second series),"[1]; concentration 3.33333, second replicate series, fraction of control",1.022
same,normalized signal at 10 (first series),"[1]; concentration 10, first replicate series, fraction of control",0.9917
same,normalized signal at 10 (second series),"[1]; concentration 10, second replicate series, fraction of control",1.205
same,IC50,"[1]; 2nd round, Broad DOS compounds, unit not printed (dose series head 10 to 0.000508053)",> 10 µM

# — paper PMC4890880 (ACS infectious diseases, 2016)
